Values of other authors, collected in patent publication US7417165B2, “Crystalline forms of pregabalin” (Teva Pharmaceutical Industries Ltd., priority 2005, dated 2008).

Key:
[1] = system: GAD (L-glutamic acid decarboxylase); conditions: background statement, no data
seizure = conditions: background statement, no data

SMILES: CC(C)C[C@H](CN)CC(=O)O [(S)-Pregabalin, (S)-(+)-3-(aminomethyl)-5-methylhexanoic acid]
- activation of GAD (L-glutamic acid decarboxylase) [1]: activate
- protective effect on seizure (seizure): dose dependent protective effect
